Measurements reported in PubChem BioAssay (NCI).
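Each compound was tested at five concentrations against cells in 96-well plates for 48 hours. The concentration for full growth arrest is given as TGI.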

Columns and labels:
Experiment in all cases: NCI anticancer screen, dose series, 48 h
786-0 renal = tested on: 786-0 renal
A498 renal = tested on: A498 renal
A549 NSCLC = tested on: A549 NSCLC
ACHN renal = tested on: ACHN renal
CAKI-1 renal = tested on: CAKI-1 renal
CCRF-CEM leukemia = tested on: CCRF-CEM leukemia
COLO 205 colon = tested on: COLO 205 colon
DLD-1 colon = tested on: DLD-1 colon
DMS 114 small cell lung = tested on: DMS 114 small cell lung
DMS 273 small cell lung = tested on: DMS 273 small cell lung
EKVX NSCLC = tested on: EKVX NSCLC
HCC-2998 colon = tested on: HCC-2998 colon
HCT-116 colon = tested on: HCT-116 colon
HCT-15 colon = tested on: HCT-15 colon
HL-60(TB) leukemia = tested on: HL-60(TB) leukemia
HOP-18 NSCLC = tested on: HOP-18 NSCLC
HOP-62 NSCLC = tested on: HOP-62 NSCLC
HT29 colon = tested on: HT29 colon
IGROV1 ovarian = tested on: IGROV1 ovarian
K-562 leukemia = tested on: K-562 leukemia
KM12 colon = tested on: KM12 colon
KM20L2 colon = tested on: KM20L2 colon
LOX IMVI melanoma = tested on: LOX IMVI melanoma
LXFL 529 NSCLC = tested on: LXFL 529 NSCLC
M14 melanoma = tested on: M14 melanoma
M19-MEL melanoma = tested on: M19-MEL melanoma
MALME-3M melanoma = tested on: MALME-3M melanoma
MOLT-4 leukemia = tested on: MOLT-4 leukemia
NCI-H226 lung = tested on: NCI-H226 lung
NCI-H23 lung = tested on: NCI-H23 lung
NCI-H460 lung = tested on: NCI-H460 lung
NCI-H522 lung = tested on: NCI-H522 lung
OVCAR-3 ovarian = tested on: OVCAR-3 ovarian
OVCAR-4 ovarian = tested on: OVCAR-4 ovarian
OVCAR-5 ovarian = tested on: OVCAR-5 ovarian
OVCAR-8 ovarian = tested on: OVCAR-8 ovarian
RPMI-8226 leukemia = tested on: RPMI-8226 leukemia
RXF 393 renal = tested on: RXF 393 renal
RXF-631 renal = tested on: RXF-631 renal
SF-268 CNS = tested on: SF-268 CNS
SF-295 CNS = tested on: SF-295 CNS
SF-539 CNS = tested on: SF-539 CNS
SK-MEL-2 melanoma = tested on: SK-MEL-2 melanoma
SK-MEL-28 melanoma = tested on: SK-MEL-28 melanoma
SK-MEL-5 melanoma = tested on: SK-MEL-5 melanoma
SN12C renal = tested on: SN12C renal
SNB-19 CNS = tested on: SNB-19 CNS
SNB-75 CNS = tested on: SNB-75 CNS
SNB-78 CNS = tested on: SNB-78 CNS
SR leukemia = tested on: SR leukemia
SW-620 colon = tested on: SW-620 colon
TK-10 renal = tested on: TK-10 renal
U251 CNS = tested on: U251 CNS
UACC-257 melanoma = tested on: UACC-257 melanoma
UACC-62 melanoma = tested on: UACC-62 melanoma
UO-31 renal = tested on: UO-31 renal
XF 498 CNS = tested on: XF 498 CNS
HOP-92 NSCLC = tested on: HOP-92 NSCLC
SK-OV-3 ovarian = tested on: SK-OV-3 ovarian

SMILES: CC1CC(=O)Nc2ccccc2N1C(=O)CN1CCC(CCCCN(C)C)CC1 (stereo not given)
- TGI (786-0 renal): > 100 µM
- TGI (A498 renal): > 100 µM
- TGI (A549 NSCLC): > 100 µM
- TGI (ACHN renal): > 100 µM
- TGI (CAKI-1 renal): > 100 µM
- TGI (CCRF-CEM leukemia): > 100 µM
- TGI (COLO 205 colon): > 100 µM
- TGI (DLD-1 colon): > 100 µM
- TGI (DMS 114 small cell lung): > 100 µM
- TGI (DMS 273 small cell lung): > 100 µM
- TGI (EKVX NSCLC): > 100 µM
- TGI (HCC-2998 colon): > 100 µM
- TGI (HCT-116 colon): > 100 µM
- TGI (HCT-15 colon): > 100 µM
- TGI (HL-60(TB) leukemia): > 100 µM
- TGI (HOP-18 NSCLC): > 100 µM
- TGI (HOP-62 NSCLC): > 100 µM
- TGI (HT29 colon): > 100 µM
- TGI (IGROV1 ovarian): > 100 µM
- TGI (K-562 leukemia): > 100 µM
- TGI (KM12 colon): > 100 µM
- TGI (KM20L2 colon): > 100 µM
- TGI (LOX IMVI melanoma): > 100 µM
- TGI (LXFL 529 NSCLC): > 100 µM
- TGI (M14 melanoma): > 100 µM
- TGI (M19-MEL melanoma): > 100 µM
- TGI (MALME-3M melanoma): > 100 µM
- TGI (MOLT-4 leukemia): > 100 µM
- TGI (NCI-H226 lung): > 100 µM
- TGI (NCI-H23 lung): > 100 µM
- TGI (NCI-H460 lung): > 100 µM
- TGI (NCI-H522 lung): > 100 µM
- TGI (OVCAR-3 ovarian): > 100 µM
- TGI (OVCAR-4 ovarian): > 100 µM
- TGI (OVCAR-5 ovarian): > 100 µM
- TGI (OVCAR-8 ovarian): > 100 µM
- TGI (RPMI-8226 leukemia): > 100 µM
- TGI (RXF 393 renal): > 100 µM
- TGI (RXF-631 renal): > 100 µM
- TGI (SF-268 CNS): > 100 µM
- TGI (SF-295 CNS): > 100 µM
- TGI (SF-539 CNS): > 100 µM
- TGI (SK-MEL-2 melanoma): > 100 µM
- TGI (SK-MEL-28 melanoma): > 100 µM
- TGI (SK-MEL-5 melanoma): > 100 µM
- TGI (SN12C renal): > 100 µM
- TGI (SNB-19 CNS): > 100 µM
- TGI (SNB-75 CNS): > 100 µM
- TGI (SNB-78 CNS): > 100 µM
- TGI (SR leukemia): > 100 µM
- TGI (SW-620 colon): > 100 µM
- TGI (TK-10 renal): > 100 µM
- TGI (U251 CNS): > 100 µM
- TGI (UACC-257 melanoma): > 100 µM
- TGI (UACC-62 melanoma): > 100 µM
- TGI (UO-31 renal): > 100 µM

SMILES: O=C(c1ccccc1)[C@H]1Nc2ccc(Cl)cc2C2c3ccccc3CC21 (stereo not given in full)
- TGI (786-0 renal): > 100 µM
- TGI (A549 NSCLC): > 100 µM
- TGI (ACHN renal): > 100 µM
- TGI (CAKI-1 renal): > 100 µM
- TGI (COLO 205 colon): > 100 µM
- TGI (DLD-1 colon): > 100 µM
- TGI (DMS 114 small cell lung): > 100 µM
- TGI (DMS 273 small cell lung): > 100 µM
- TGI (HCC-2998 colon): 83.4 µM
- TGI (HCT-116 colon): > 100 µM
- TGI (HCT-15 colon): > 100 µM
- TGI (HOP-62 NSCLC): > 100 µM
- TGI (HT29 colon): > 100 µM
- TGI (IGROV1 ovarian): > 100 µM
- TGI (K-562 leukemia): > 100 µM
- TGI (KM12 colon): > 100 µM
- TGI (KM20L2 colon): > 100 µM
- TGI (LOX IMVI melanoma): > 100 µM
- TGI (LXFL 529 NSCLC): > 100 µM
- TGI (M14 melanoma): > 100 µM
- TGI (M19-MEL melanoma): > 100 µM
- TGI (MOLT-4 leukemia): > 100 µM
- TGI (NCI-H226 lung): > 100 µM
- TGI (NCI-H23 lung): > 100 µM
- TGI (NCI-H460 lung): > 100 µM
- TGI (NCI-H522 lung): > 100 µM
- TGI (OVCAR-3 ovarian): 66.1 µM
- TGI (OVCAR-4 ovarian): 50.9 µM
- TGI (OVCAR-5 ovarian): > 100 µM
- TGI (OVCAR-8 ovarian): > 100 µM
- TGI (RPMI-8226 leukemia): > 100 µM
- TGI (RXF 393 renal): 45.4 µM
- TGI (RXF-631 renal): > 100 µM
- TGI (SF-268 CNS): > 100 µM
- TGI (SF-295 CNS): 67.5 µM
- TGI (SF-539 CNS): > 100 µM
- TGI (SK-MEL-2 melanoma): > 100 µM
- TGI (SK-MEL-28 melanoma): 97 µM
- TGI (SK-MEL-5 melanoma): 85.2 µM
- TGI (SN12C renal): > 100 µM
- TGI (SNB-19 CNS): > 100 µM
- TGI (SNB-75 CNS): > 100 µM
- TGI (SNB-78 CNS): > 100 µM
- TGI (SR leukemia): > 100 µM
- TGI (SW-620 colon): > 100 µM
- TGI (TK-10 renal): > 100 µM
- TGI (U251 CNS): > 100 µM
- TGI (UACC-257 melanoma): 85.9 µM
- TGI (UO-31 renal): > 100 µM
- TGI (XF 498 CNS): 72.5 µM

SMILES: CNCc1cc(OC)ccc1-c1ccc(OC)c(OC)c1OC
- TGI (786-0 renal): > 100 µM
- TGI (A498 renal): > 100 µM
- TGI (A549 NSCLC): > 100 µM
- TGI (ACHN renal): > 100 µM
- TGI (CAKI-1 renal): > 100 µM
- TGI (CCRF-CEM leukemia): > 100 µM
- TGI (COLO 205 colon): > 100 µM
- TGI (DLD-1 colon): > 100 µM
- TGI (DMS 114 small cell lung): > 100 µM
- TGI (DMS 273 small cell lung): > 100 µM
- TGI (EKVX NSCLC): > 100 µM
- TGI (HCC-2998 colon): > 100 µM
- TGI (HCT-116 colon): > 100 µM
- TGI (HCT-15 colon): > 100 µM
- TGI (HL-60(TB) leukemia): > 100 µM
- TGI (HOP-18 NSCLC): > 100 µM
- TGI (HOP-62 NSCLC): > 100 µM
- TGI (HOP-92 NSCLC): > 100 µM
- TGI (HT29 colon): > 100 µM
- TGI (IGROV1 ovarian): > 100 µM
- TGI (K-562 leukemia): > 100 µM
- TGI (KM12 colon): > 100 µM
- TGI (KM20L2 colon): > 100 µM
- TGI (LOX IMVI melanoma): > 100 µM
- TGI (LXFL 529 NSCLC): > 100 µM
- TGI (M14 melanoma): > 100 µM
- TGI (M19-MEL melanoma): > 100 µM
- TGI (MALME-3M melanoma): > 100 µM
- TGI (MOLT-4 leukemia): > 100 µM
- TGI (NCI-H226 lung): > 100 µM
- TGI (NCI-H23 lung): > 100 µM
- TGI (NCI-H460 lung): > 100 µM
- TGI (NCI-H522 lung): > 100 µM
- TGI (OVCAR-3 ovarian): > 100 µM
- TGI (OVCAR-4 ovarian): > 100 µM
- TGI (OVCAR-5 ovarian): > 100 µM
- TGI (OVCAR-8 ovarian): > 100 µM
- TGI (RPMI-8226 leukemia): > 100 µM
- TGI (RXF 393 renal): > 100 µM
- TGI (RXF-631 renal): > 100 µM
- TGI (SF-268 CNS): > 100 µM
- TGI (SF-295 CNS): > 100 µM
- TGI (SF-539 CNS): > 100 µM
- TGI (SK-MEL-2 melanoma): > 100 µM
- TGI (SK-MEL-28 melanoma): > 100 µM
- TGI (SK-MEL-5 melanoma): > 100 µM
- TGI (SK-OV-3 ovarian): > 100 µM
- TGI (SN12C renal): > 100 µM
- TGI (SNB-19 CNS): > 100 µM
- TGI (SNB-75 CNS): > 96.7 µM
- TGI (SNB-78 CNS): > 100 µM
- TGI (SR leukemia): > 100 µM
- TGI (SW-620 colon): > 100 µM
- TGI (TK-10 renal): > 100 µM
- TGI (U251 CNS): > 100 µM
- TGI (UACC-257 melanoma): > 100 µM
- TGI (UACC-62 melanoma): > 100 µM
- TGI (UO-31 renal): > 100 µM
- TGI (XF 498 CNS): > 100 µM
